Measured values as given in US20080119491A1, “AMIDINOHETEROCYCLES AS MODULATORS OF INDOLEAMINE 2,3-DIOXYGENASE” (INCYTE CORPORATION, priority 2006, published 2008).
pIC50: −log10 of the molar value.

Target: T1, Human indoleamine 2,3-dioxygenasae (IDO) (Homo sapiens, UniProt P14902)
T1 construct: His tag (N); made in house; host or cells: E. coli
Assay: Human indoleamine 2,3-dioxygenase (IDO) enzyme assay
Format: biochemical
Conditions: 95 nM IDO, 2 mM D-Trp, pH 6.5, room temperature
Procedure: Human indoleamine 2,3-dioxygenasae (IDO) with an N-terminal His tag was expressed in E. coli and purified to homogeneity. IDO catalyzes the oxidative cleavage of the pyrrole ring of the indole nucleus of tryptophan to yield N′-formylkynurenine. The assays were performed at room temperature as described in the literature using 95 nM IDO and 2 mM D-Trp in the presence of 20 mM ascorbate, 5 μM methylene blue and 0.2 mg/mL catalase in 50 mM potassium phosphate buffer (pH 6.5). The initial reaction rates were recorded by continuously following the absorbance increase at 321 nm due to the formation of N′-formlylkynurenine. See: Sono, M., Taniguchi, T., Watanabe, Y., and Hayaishi, O. (1980) J. Biol. Chem. 255, 1339-1345. […] The symbol “+” indicates […]. The symbol “+++” indicates IC50>[…]

T1 sequence (P14902 whole entry): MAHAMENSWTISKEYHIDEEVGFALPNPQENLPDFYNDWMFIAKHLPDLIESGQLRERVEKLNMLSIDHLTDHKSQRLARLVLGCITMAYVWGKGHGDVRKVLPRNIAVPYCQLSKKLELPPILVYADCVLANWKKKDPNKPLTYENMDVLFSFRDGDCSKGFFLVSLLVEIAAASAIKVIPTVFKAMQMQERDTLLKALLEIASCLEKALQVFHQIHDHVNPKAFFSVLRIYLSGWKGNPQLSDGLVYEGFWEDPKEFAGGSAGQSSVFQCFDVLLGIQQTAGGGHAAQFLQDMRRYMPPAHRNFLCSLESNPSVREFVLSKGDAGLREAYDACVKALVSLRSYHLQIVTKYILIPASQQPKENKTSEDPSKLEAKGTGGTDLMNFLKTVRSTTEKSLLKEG

pIC50 | Structure (SMILES)
< 5.00 | ON=C(Nc1ccc(F)c(Cl)c1)c1cccc(Oc2ccccc2)c1 [Example 10, N-(3-chloro-4-fluorophenyl)-N′-hydroxy-3-phenoxybenzene-carboximidamide]
< 5.00 | Nc1nccnc1C(=NO)Nc1cccc(C(F)(F)F)c1 [Example 2, 3-Amino-N′-hydroxy-N-[3-(trifluoromethyl)phenyl]pyrazine-2-carboximidamide]
< 5.00 | Cc1ccc(Cl)cc1CNC(=NO)c1cccnn1 [Example 13, N-(5-chloro-2-methylbenzyl)-N′-hydroxypyridazine-3-carboximidamide]
< 5.00 | ON=C(Nc1cccc(C(F)(F)F)c1)c1cccnc1 [Example 8, N′-hydroxy-N-[3-(trifluoromethyl)-phenyl]pyridine-3-carbox-imidamide]
< 5.00 | ON=C(Nc1cccc(C(F)(F)F)c1)c1cnccn1 [Example 7, N′-hydroxy-N-[3-(trifluoromethyl)-phenyl]pyrazine-2-carbox-imidamide]
< 5.00 | Nc1nccnc1C(=NO)Nc1ccc(F)c(C(F)(F)F)c1 [Example 4, 3-amino-N′-hydroxy-N-[3-(tri-fluoromethyl), 4-fluorophenyl]-pyrazine-2-carboximidamide]
< 5.00 | COc1ccc(CNc2nccnc2C(=NO)Nc2cccc(C(F)(F)F)c2)cc1 [Example 1, NA-Hydroxy-3-[(4-methoxybenzyl)amino]-N-[3-(trifluoromethyl)phenyl]-pyrazine-2-carboximidamide]
< 5.00 | COc1ccc(CNc2nccnc2C(=NO)Nc2ccc(F)c(Cl)c2)cc1 [Example 5]
< 5.00 | Nc1nccnc1C(=NO)Nc1ccc(F)c(Cl)c1 [Example 6, 3-amino-N′-hydroxy-N-[3-chloro,4-fluorophenyl]pyrazine-2-carbox-imidamide]
